# Measured values taken from paper PMC9386806 (ACS Omega, 2022).
# Target: hCA II (Homo sapiens, UniProt P00918)
# Assay: biochemical
row,Compound,IC50 [µM]
1,"COC(=O)C1=C(N)Oc2c(c(=O)oc3ccc(C)cc23)C1c1ccccc1OCc1cc2ccccc2oc1=O (stereo not shown) [Compound 12e, 2-Amino-9-methyl-5-oxo-4-[2-(2-oxo-2H-chromen-3-ylmethoxy)-phenyl]-4H,5H-pyrano[3,2-c]chromene-3-carboxylic Acid Methyl Ester]",21.8 ± 3.32
2,"N#CC1=C(N)Oc2c(c(=O)oc3cc(O)ccc23)C1c1ccccc1OCc1cc2ccccc2oc1=O (stereo not shown) [Compound 12h, 2-Amino-8-hydroxy-5-oxo-4-[2-(2-oxo-2H-chromen-3-ylmethoxy)-phenyl]-4H,5H-pyrano[3,2-c]chromene-3-carbonitrile]",4.55 ± 0.22
3,"COC(=O)C1=C(N)Oc2c(c(=O)oc3cc(O)ccc23)C1c1ccccc1OCc1cc2ccccc2oc1=O (stereo not shown) [Compound 12i, 2-Amino-8-hydroxy-5-oxo-4-[2-(2-oxo-2H-chromen-3-ylmethoxy)-phenyl]-4H,5H-pyrano[3,2-c]chromene-3-carboxylic Acid Methyl Ester]",4.91 ± 1.13
4,"CCOC(=O)C1=C(N)Oc2c(c(=O)oc3cc(O)ccc23)C1c1ccccc1OCc1cc2ccccc2oc1=O (stereo not shown) [Compound 12j, 2-Amino-8-hydroxy-5-oxo-4-[2-(2-oxo-2H-chromen-3-ylmethoxy)-phenyl]-4H,5H-pyrano[3,2-c]chromene-3-carboxylic Acid Ethyl Ester]",7.78 ± 0.08
